Legend:
[1] = tested on: Pu24T (DNA, G4) TGAGGGTGGTGAGGGTGGGGAAGG; test: gel mobility shift; details: K+ (10 mM potassium phosphate, 50 mM KCl); 20 μM DNA, room temperature
[2] = tested on: tel22 (DNA, G4) AGGGTTAGGGTTAGGGTTAGGG; test: fluorescence titration of Piperine; details: K+ (10 mM potassium phosphate, 50 mM KCl); pH 7.0, 25 °C; two-site saturation fit, Kd1 and Kd2 only in Figure 2 and Table S1
[3] = tested on: Pu24T (DNA, G4) TGAGGGTGGTGAGGGTGGGGAAGG; test: fluorescence titration of Piperine; details: K+ (10 mM potassium phosphate, 50 mM KCl); pH 7.0, 25 °C; two-site saturation fit, Kd1 and Kd2 only in Figure 2 and Table S1
[4] = tested on: Pu24T (DNA, G4) TGAGGGTGGTGAGGGTGGGGAAGG; test: UV melting at 295 nm; details: K+ (10 mM potassium phosphate, 50 mM KCl); pH 7.0; derived from two Tm (75.0 and 79.0 °C); D/N = 2.0; 78.0 °C at D/N 1.0
[5] = tested on: tel22 (DNA, G4) AGGGTTAGGGTTAGGGTTAGGG; test: time-resolved fluorescence (lifetime); details: K+ (10 mM potassium phosphate, 50 mM KCl); 40.0 μM Piperine, D/N 1.0 and 2.0; lifetime increases
[6] = tested on: Pu24T (DNA, G4) TGAGGGTGGTGAGGGTGGGGAAGG; test: 1H NMR titration; details: K+ (potassium phosphate); 298 K, 400 μM Piperine, H2O/D2O 9:1; Piperine resonances broaden

In the case of `O=C(/C=C/C=C/c1ccc2c(c1)OCO2)N1CCCCC1`, the binding [1] is reported as “yes”, the Kd1 [2] is reported as 87.5 nM and the Kd1 [3] is reported as 2.5 nM. For the same molecule, the ΔTm [4] was 4.0 °C, the binding [5] was “yes” and the binding [6] was “yes”.

Reference: paper PMC5171706 (2016)
